# Measured values published in patent publication US20250171430A1, “PYRAZOLYL COMPOUNDS AS KV7 CHANNEL ACTIVATORS” (Biohaven Therapeutics Ltd., priority 2022, published 2025).
# Molecular target: T1, Kv7.2/7.3 (Homo sapiens, UniProt O43525+O43526)
# T1 construct: Kv7.2 tetracycline-induced, Kv7.3 constitutive
# Experiment: Kv7.2/7.3 Activation Assay (Thallium Flux Assay)
# Type: cell-based
# Details: hKV7.2/7.3 cell line; test compound at single concentration of 10 μM; fluorescence at 90 sec normalized to positive control (retigabine, 30 μM)
# Method in brief: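 Single-point activity at 10 μM (0.1% DMSO, HEPES-buffered saline, pH 7.4) was scored from fluorescence at 90 s relative to 30 μM retigabine. Categories were none <0.15, moderate 0.15-0.7 and high >0.7. Thallium influx after stimulus addition was followed with FluxOR II Green dye in hKv7.2/7.3 cells, Kv7.2 expressed under overnight tetracycline (10 ng/mL) induction.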
row,Compound,Kv7.2/7.3 Activity
1,"Cn1nc(NC(=O)CC2COC2)c(C2CCC2)c1-c1ccc(OC(F)(F)F)cc1 [Compound 84, N-(4-cyclobutyl-1-methyl-5-(4-(trifluoromethoxy)phenyl)-1H-pyrazol-3-yl)-2-(oxetan-3-yl)acetamide]",− (“−” No Activity < 0.15)
2,"Cn1nc(NC(=O)CC2COC2)c(C2CCC2)c1-c1ccc(F)cc1 [Compound 85, N-(4-cyclobutyl-5-(4-fluorophenyl)-1-methyl-1H-pyrazol-3-yl)-2-(oxetan-3-yl)acetamide]",− (“−” No Activity < 0.15)
3,"Cn1nc(NC(=O)CC2COC2)c(C2CCC2)c1-c1cnc(C(F)(F)F)s1 [Compound 86, N-(4-cyclobutyl-1-methyl-5-(2-(trifluoromethyl)thiazol-5-yl)-1H-pyrazol-3-yl)-2-(oxetan-3-yl)acetamide]",− (“−” No Activity < 0.15)
4,"Cn1nc(NC(=O)CC2(O)CCC2)c(C2CCC2)c1-c1ccc(OC(F)(F)F)cc1 [Compound 87, N-(4-cyclobutyl-1-methyl-5-(4-(trifluoromethoxy)phenyl)-1H-pyrazol-3-yl)-2-(1-hydroxycyclobutyl)acetamide]",+ (“+” Moderate Activity 0.15-0.7)
5,"Cn1nc(NC(=O)CC2(C(F)(F)F)CCC2)c(C2CCC2)c1C1(C(F)(F)F)CCC1 [Compound 88, N-(4-cyclobutyl-1-methyl-5-(1-(trifluoromethyl)cyclobutyl)-1H-pyrazol-3-yl)-2-(1-(trifluoromethyl)cyclobutyl)acetamide]",++ (“++” High Activity ≥ 0.7)
6,"Cn1nc(NC(=O)CC2(C(F)(F)F)CC2)c(C2CCC2)c1C1(C(F)(F)F)CCC1 [Compound 89, N-(4-cyclobutyl-1-methyl-5-(1-(trifluoromethyl)cyclobutyl)-1H-pyrazol-3-yl)-2-(1-(trifluoromethyl)cyclopropyl)acetamide]",++ (“++” High Activity ≥ 0.7)
7,"Cn1nc(NC(=O)Cc2ccc(F)c(F)c2)c(C2CCC2)c1C1(C(F)(F)F)CCC1 [Compound 90, N-(4-cyclobutyl-1-methyl-5-(1-(trifluoromethyl)cyclobutyl)-1H-pyrazol-3-yl)-2-(3,4-difluorophenyl)acetamide]",+ (“+” Moderate Activity 0.15-0.7)
8,"Cn1nc(NC(=O)Cc2ccc(F)c(F)c2)c(C2CCC2)c1-c1ccc(F)cc1 [Compound 91, N-(4-cyclobutyl-5-(4-fluorophenyl)-1-methyl-1H-pyrazol-3-yl)-2-(3,4-difluorophenyl)acetamide]",+ (“+” Moderate Activity 0.15-0.7)
9,"Cn1nc(NC(=O)Cc2ccc(F)c(F)c2)c(C2CCC2)c1-c1ccc(OC(F)(F)F)cc1 [Compound 92, N-(4-cyclobutyl-1-methyl-5-(4-(trifluoromethoxy)phenyl)-1H-pyrazol-3-yl)-2-(3,4-difluorophenyl)acetamide]",++ (“++” High Activity ≥ 0.7)
10,"Cc1c(C2CCC2)c(NC(=O)CC2CC(F)(F)C2)nn1Cc1ccc(F)cc1 [Compound 93, N-(4-cyclobutyl-1-(4-fluorobenzyl)-5-methyl-1H-pyrazol-3-yl)-2-(3,3-difluorocyclobutyl)acetamide]",+ (“+” Moderate Activity 0.15-0.7)
11,"Cc1c(C2CCC2)c(NC(=O)CC(C)(C)C(F)(F)F)nn1Cc1ccc(F)cc1 [Compound 94, N-(4-cyclobutyl-1-(4-fluorobenzyl)-5-methyl-1H-pyrazol-3-yl)-4,4,4-trifluoro-3,3-dimethylbutanamide]",− (“−” No Activity < 0.15)
12,"Cc1c(C2CCC2)c(NC(=O)CC2(C(F)(F)F)CC2)nn1Cc1ccc(F)cc1 [Compound 95, N-(4-cyclobutyl-1-(4-fluorobenzyl)-5-methyl-1H-pyrazol-3-yl)-2-(1-(trifluoromethyl)cyclopropyl)acetamide]",− (“−” No Activity < 0.15)
13,"Cn1nc(NC(=O)CC(C)(C)C(F)(F)F)c(C2CCC2)c1-c1ccc(Cl)s1 [Compound 96, N-(5-(5-chlorothiophen-2-yl)-4-cyclobutyl-1-methyl-1H-pyrazol-3-yl)-4,4,4-trifluoro-3,3-dimethylbutanamide]",++ (“++” High Activity ≥ 0.7)
14,"Cn1nc(NC(=O)CC(C)(C)C(F)(F)F)c(C2CCC2)c1-c1ccc(F)cc1F [Compound 97, N-(4-cyclobutyl-5-(2,4-difluorophenyl)-1-methyl-1H-pyrazol-3-yl)-4,4,4-trifluoro-3,3-dimethylbutanamide]",++ (“++” High Activity ≥ 0.7)
15,"Cn1nc(NC(=O)CC2CC(F)(F)C2)c(C2CCC2)c1-c1ccc(F)cc1F [Compound 98, N-(4-cyclobutyl-5-(2,4-difluorophenyl)-1-methyl-1H-pyrazol-3-yl)-2-(3,3-difluorocyclobutyl)acetamide]",++ (“++” High Activity ≥ 0.7)
16,"Cn1nc(NC(=O)C[C@H]2CC2(F)F)c(C2CCC2)c1-c1ccc(F)cc1 [Compound 99, (S)-N-(4-cyclobutyl-5-(4-fluorophenyl)-1-methyl-1H-pyrazol-3-yl)-2-(2,2-difluorocyclopropyl)acetamide]",++ (“++” High Activity ≥ 0.7)
17,"Cn1nc(NC(=O)C[C@H]2CC2(C)C)c(C2CCC2)c1-c1ccc(F)cc1 [Compound 100, (R)-N-(4-cyclobutyl-5-(4-fluorophenyl)-1-methyl-1H-pyrazol-3-yl)-2-(2,2-dimethylcyclopropyl)acetamide]",++ (“++” High Activity ≥ 0.7)
18,"Cn1nc(NC(=O)CCC(F)(F)C(F)(F)F)c(C2CCC2)c1-c1ccc(F)cc1 [Compound 101, N-(4-cyclobutyl-5-(4-fluorophenyl)-1-methyl-1H-pyrazol-3-yl)-4,4,5,5,5-pentafluoropentanamide]",++ (“++” High Activity ≥ 0.7)
19,"Cn1nc(NC(=O)CC2CCCC2)c(C2CCC2)c1-c1ccc(F)cc1 [Compound 102, N-(4-cyclobutyl-5-(4-fluorophenyl)-1-methyl-1H-pyrazol-3-yl)-2-cyclopentylacetamide]",++ (“++” High Activity ≥ 0.7)
20,"Cn1nc(NC(=O)C2(c3ccccc3)CC2)c(C2CCC2)c1-c1ccc(F)cc1 [Compound 103, N-(4-cyclobutyl-5-(4-fluorophenyl)-1-methyl-1H-pyrazol-3-yl)-1-phenylcyclopropane-1-carboxamide]",+ (“+” Moderate Activity 0.15-0.7)
21,"CC[C@H](C)CC(=O)Nc1nn(C)c(-c2ccc(F)cc2)c1C1CCC1 [Compound 104, (S)-N-(4-cyclobutyl-5-(4-fluorophenyl)-1-methyl-1H-pyrazol-3-yl)-3-methylpentanamide]",++ (“++” High Activity ≥ 0.7)
22,"Cn1nc(NC(=O)CC2(C(F)(F)F)CC2)c(C2CCC2)c1-c1ccccc1F [Compound 105, N-(4-cyclobutyl-5-(2-fluorophenyl)-1-methyl-1H-pyrazol-3-yl)-2-(1-(trifluoromethyl)cyclopropyl)acetamide]",++ (“++” High Activity ≥ 0.7)
23,"Cn1nc(NC(=O)CC2CC(F)(F)C2)c(C2CCC2)c1-c1ccccc1F [Compound 106, N-(4-cyclobutyl-5-(2-fluorophenyl)-1-methyl-1H-pyrazol-3-yl)-2-(3,3-difluorocyclobutyl)acetamide]",++ (“++” High Activity ≥ 0.7)
24,"Cn1nc(NC(=O)CC2(C(F)(F)F)CC2)c(C2CCC2)c1-c1ccc(F)cc1F [Compound 107, N-(4-cyclobutyl-5-(2,4-difluorophenyl)-1-methyl-1H-pyrazol-3-yl)-2-(1-(trifluoromethyl)cyclopropyl)acetamide]",++ (“++” High Activity ≥ 0.7)
